The values below are quoted from earlier work in patent US20090118340A1, “Method for inhibiting and/or preventing formation of cancer metastases and seconddary malignant cancers” (priority 2007, published 2009).

The series relates to murine leukemia L1210. The following applies: for cytotoxicity in cultured leukemia cells: Pharmacological Reports, 2007, 59, 216-223.

As for `C[n+]1cccc(C(N)=O)c1` [MNA, 1-methylnicotinamide], the “cytotoxicity in cultured leukemia cells” value is on record as “negligible”. For the same compound, under “observed only at very high concentration”, the “cytotoxicity, factor lower than 3-nitro-1-methylpyridinium chloride” value is recorded as “about 7000”.

`C[n+]1cccc([N+](=O)[O-])c1.[Cl-]` [3-nitro-1-methylpyridinium chloride, reference compound]: the “cytotoxicity in cultured leukemia cells” value was “highest cytotoxicity”.
